Reference: patent US20240197742A1, “Therapeutic Combinations of a CD19 Inhibitor and a BTK Inhibitor” (Acerta Pharma B.V., priority 2015, published 2024)

How the values were obtained:
[1] = target: CYP3A4 (Homo sapiens, UniProt P08684); assay: Loss of parent drug as catalyzed by CYPs; assay type: in vitro ADME; conditions: in vitro
Source text: (§1) No unique human metabolite was identified. Preliminary evaluations of metabolism in the plasma, bile, and urine of rats, dogs, and monkeys indicated metabolic processes of oxidation, glutathione binding, and hydrolysis.

[2] = Glutathione binding and depletion in vitro; assay type: in vitro ADME
Source text: as §1

[3] = tested on: KPC derived mouse pancreatic cancer cells; assay: Orthotopic pancreatic cancer model; assay type: in vivo; conditions: Formula (2) 15 mg/kg/BID given orally
Experimental: In this study, KPC derived mouse pancreatic cancer cells (KrasG12D;Trp53R172H;Pdx1-Cre) were injected into the pancreases.
Single cell suspensions from tumor samples. Mouse tumor tissue was collected and stored in PBS/0.1% soybean trypsin inhibitor prior to enzymatic dissociation. Samples were finely minced with a scissors and mouse tissue was transferred into DMEM containing 1.0 mg/mL collagenase IV (Gibco), 0.1% soybean trypsin inhibitor, and 50 U/ml DNase (Roche) and incubated at 37° C. for 30 min. with constant stirring while human tissue was digested in 2.0 mg/ml collagenase IV, 1.0 mg/ml hyluronidase, 0.1% soybean trypsin inhibitor, and 50 U/ml DNase for 45 minutes. Suspensions were filtered through a 100 micron filter and washed with FACS buffer (PBS/0.5% BSA/2.0 mM EDTA) prior to staining. Two million total cells were stained with antibodies as indicated. Intracellular detection of FoxP3 was achieved following permeabilization with BD Perm Buffer III (BD Biosciences) and eBioscience Fix/Perm respectively. Following surface staining, samples were acquired on a BD Fortessa and analyzed using FlowJo (Treestar) software.

[4] = tested on: ID8 ovarian cancer; assay: ID8 syngeneic orthotropic ovarian cancer murine model; assay type: in vivo, mouse; conditions: 15 mg/kg/BID given orally
Source text: Human ovarian cancer models, including the ID8 syngeneic orthotropic ovarian cancer model and other animal models, are described in Fong and Kakar, J. Ovarian Res. 2009, 2, 12; Greenaway, et al., Gynecol. Oncol. 2008, 108, 385-94; Urzua, et al., Tumour Biol. 2005, 26, 236-44; Janat-Amsbury, et al., Anticancer Res. 2006, 26, 3223-28; Janat-Amsbury, et al., Anticancer Res. 2006, 26, 2785-89. […] The results of the study are shown in FIG. 13, FIG. 14, FIG. 15, FIG. 16, FIG. 17, FIG. 18, FIG. 19, and FIG. 20.

[5] = tested on: pancreatic cancer (KPC mice); assay: KPC pancreatic cancer model; assay type: in vivo
Experimental: The KPC mouse model recapitulates many of the molecular, histopathologic, and clinical features of human disease (Westphalen and Olive, Cancer J. 2012, 18, 502-510). Combination therapy with gemcitabine was also evaluated in this model. Mice were enrolled after identification of spontaneously appearing tumors in the pancreas that were ≥100 mm^3 (as assessed by high-resolution ultrasonography).

[6] = tested on: NK cells; assay: Antibody-dependent NK cell-mediated IFN-γ release (ELISA); assay type: cell-based, human; conditions: 1 μM; trastuzumab-coated (10 μg/mL) HER18, 4 hours
Experimental: (§2) All in vitro experiments were performed in triplicate.
Cytokine secretion was determined as follows. […] NK cells from healthy donors were enriched as described above and then added to the target cells and incubated for 4 hours at 37° C. Triplicate cultures were performed on NK cells from donors. After incubation, supernatants were harvested, centrifuged briefly, and then analyzed for interferon-γ using an enzyme-linked immunosorbent assay (ELISA) (R&D Systems, Minneapolis, MN, USA).

[7] = tested on: NK cells; assay: Antibody-dependent NK cell-mediated degranulation (CD107a); assay type: cell-based, human
Experimental: as §2
Lytic granule release was determined as follows. NK cells from healthy donors were enriched and cultured in the presence of target cells, monoclonal antibodies and test articles as described above. After 4 hours, the cultures were harvested and cells were pelleted, washed, and then stained for flow cytometry evaluation. Degranulation was evaluated via by flow cytometery by externalization of CD107a, a protein normally present on the inner leaflet of lytic granules, and gating on NK cells (CD3-CD16^+ lymphocytes). The percentage of CD107α positive NK cells was quantified by comparison with a negative control (isotype control, unstained cells/FMO). Control cultures (NK cells cultured without target cells, or NK, target cell co-cultures in the absence of appropriate monoclonal antibody) were also evaluated; all experiments were performed in triplicate.

[8] = tested on: regulatory T cell (Treg); assay: Treg development from enriched CD4+ T cells; assay type: cell-based; conditions: anti-TCRβ plus anti-CD28, skewing cytokines, 4 days
Experimental: Enriched CD4^+ T cells are plated on 24-well culture dishes that have been precoated 2 hr with 250 μL anti-TCRβ (0.5 μg/mL) plus anti-CD28 (5 μg/mL) at 37° C. in PBS. The cells are then supplemented with media containing BTK inhibitors along with the skewing cytokines as indicated in the following. The Th17 and Treg cultures are grown for 4 days before analysis. The cells are maintained for an additional 3 days with skewing cytokines (Th17; 20 ng/mL IL-6, 0.5 ng/mL TGF-β, 5 μg/mL IL-4, 5 μg/mL IFN-γ and Treg; 0.5 ng/mL TGF-β, 5 μg/mL IL-4, 5 μg/mL IFN-γ) and are supplemented with IL2 as a growth factor.

[9] = tested on: MDSC (monocytic) and NK cells; assay: Flow cytometry of peripheral blood cell subsets in CLL patients; assay type: in vivo, human; conditions: patients with decreasing ALC %, doses including 100 mg BID, 200 mg QD, 400 mg QD
Experimental: PBMCs were stained with monoclonal antibodies conjugated to fluorescent tags (flourochromes) to identify cell subsets via flow cytometry. Non-viable cells were excluded from the analysis using the dye 7-aminoactinomycin D (7-AAD). To produce the metric of percent change, the following steps were taken. First, each cell subset was defined by hierarchical flow cytometry gating. Then, the change in frequency (between day 1 and day 28) was calculated for each cell subset. MDSC subsets were measured as a % of all myeloid cells. T cell subsets were measured as a % of all CD3^+ cells, and NK cells were measured as a % of all live CD45^+ cells. […] A cycle is 28 days. […] This may include patients who had quickly resolving lymphocytosis and those with no initial lymphocytosis. […] This may include patients who had quickly resolving lymphocytosis and those having no initial lymphocytosis. The effects in FIG. 52 to FIG. 55 are observed in multiple cohorts, at doses including 100 mg BID, 200 mg QD, and 400 mg QD. In FIG. 56 and FIG. 57, the effects on NK cells and MDSC cells are compared to a number of other markers versus % change in ALC at C1D28 and C2D28. These other markers include CD4+ T cells, CD8+ T cells, CD4+/CD8+ T cell ratio, NK-T cells, PD-1+CD4+ T cells, and PD-1+CD8+ T cells. The effects on NK cells and MDSC cells are observed to be much more pronounced than on any of these other markers.

[10] = tested on: 80 known pharmacologic targets such as G-protein-coupled receptors, nuclear receptors, proteases, and ion channels; assay: Binding assays with 80 known pharmacologic targets; conditions: screened at 10 μM
[11] = target: EGFR (Homo sapiens, UniProt P00533); assay: EGF receptor phosphorylation in A431 cells (phosphoflow); conditions: 10 μM; A431 human epidermoid cancer cell line
[12] = Formula (2) 15 mg/kg BID orally

Sequence of CYP3A4 (P08684 whole entry): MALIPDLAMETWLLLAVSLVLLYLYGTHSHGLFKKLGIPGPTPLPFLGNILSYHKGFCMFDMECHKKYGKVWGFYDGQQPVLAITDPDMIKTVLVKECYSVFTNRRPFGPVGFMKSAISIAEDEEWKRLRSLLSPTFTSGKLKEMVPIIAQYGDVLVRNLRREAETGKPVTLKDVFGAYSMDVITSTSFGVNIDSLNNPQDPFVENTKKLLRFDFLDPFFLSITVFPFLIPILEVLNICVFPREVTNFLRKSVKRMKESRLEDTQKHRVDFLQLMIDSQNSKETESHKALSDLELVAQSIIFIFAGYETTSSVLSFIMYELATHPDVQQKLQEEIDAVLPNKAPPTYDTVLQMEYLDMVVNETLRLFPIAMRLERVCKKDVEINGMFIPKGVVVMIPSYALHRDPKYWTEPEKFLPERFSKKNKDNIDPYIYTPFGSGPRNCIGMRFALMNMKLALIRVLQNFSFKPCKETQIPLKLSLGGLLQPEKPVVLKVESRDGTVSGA
Sequence of EGFR (P00533 25-1210): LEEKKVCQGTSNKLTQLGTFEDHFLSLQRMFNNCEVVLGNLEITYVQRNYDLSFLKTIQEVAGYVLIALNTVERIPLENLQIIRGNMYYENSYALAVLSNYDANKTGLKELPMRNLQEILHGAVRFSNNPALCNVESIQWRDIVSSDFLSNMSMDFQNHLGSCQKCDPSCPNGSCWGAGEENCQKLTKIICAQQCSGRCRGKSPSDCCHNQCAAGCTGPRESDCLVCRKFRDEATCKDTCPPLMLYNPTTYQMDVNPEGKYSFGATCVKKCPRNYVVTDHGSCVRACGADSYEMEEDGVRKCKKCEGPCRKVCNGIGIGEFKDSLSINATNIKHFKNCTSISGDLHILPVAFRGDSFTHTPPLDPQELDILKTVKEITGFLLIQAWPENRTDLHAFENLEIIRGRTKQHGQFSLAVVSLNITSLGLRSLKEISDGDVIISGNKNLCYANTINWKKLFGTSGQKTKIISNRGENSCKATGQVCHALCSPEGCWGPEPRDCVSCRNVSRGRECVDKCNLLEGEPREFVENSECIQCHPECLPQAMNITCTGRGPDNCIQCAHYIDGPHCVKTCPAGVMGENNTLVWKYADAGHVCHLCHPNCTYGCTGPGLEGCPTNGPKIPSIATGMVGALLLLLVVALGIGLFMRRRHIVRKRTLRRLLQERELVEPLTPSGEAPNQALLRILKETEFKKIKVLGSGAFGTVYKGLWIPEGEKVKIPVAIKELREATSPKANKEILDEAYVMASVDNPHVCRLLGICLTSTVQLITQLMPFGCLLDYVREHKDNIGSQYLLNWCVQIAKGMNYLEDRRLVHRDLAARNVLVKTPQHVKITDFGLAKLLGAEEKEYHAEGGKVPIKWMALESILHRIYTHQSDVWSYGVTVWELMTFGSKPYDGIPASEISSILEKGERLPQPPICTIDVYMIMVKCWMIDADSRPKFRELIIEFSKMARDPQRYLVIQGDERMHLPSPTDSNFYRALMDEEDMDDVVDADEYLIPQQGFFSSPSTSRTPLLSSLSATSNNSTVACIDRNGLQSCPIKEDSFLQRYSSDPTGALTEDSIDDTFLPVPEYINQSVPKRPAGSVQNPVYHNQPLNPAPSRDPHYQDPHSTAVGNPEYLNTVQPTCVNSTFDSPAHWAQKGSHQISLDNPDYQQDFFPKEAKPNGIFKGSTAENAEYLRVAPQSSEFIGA

CC#CC(=O)N1CCC[C@H]1c1nc(-c2ccc(C(=O)Nc3ccccn3)cc2)c2c(N)nccn12 [Formula (2), (S)-4-(8-amino-3-(1-(but-2-ynoyl)pyrrolidin-2-yl)imidazo[1,5-α]pyrazin-1-yl)-N-(pyridin-2-yl)benzamide]
metabolism by CYPs [1]: metabolized by CYP3A4 | glutathione binding and depletion [2]: binds to glutathione but does not deplete glutathione | tumor burden [3]: reduction in tumor burden | CD8+ T cells [4]: increase | immunosuppressive tumor associated Tregs [4]: significant reduction | B regulatory cells (Bregs) ([4]; tumor-bearing mice): significant reduction | immunosuppressive tumor associated lymphocytes ([4]; tumor-bearing mice): significant reduction | total B cells ([4]; tumor-bearing mice): significant reduction | ID8 ovarian cancer growth ([4]; versus vehicle): impairs | CD8+ cells in tumor tissues [5, 12]: significant increase | immunosuppressive MDSCs (Gr1+Ly6CHi) in tumor tissues [5, 12]: significantly reduced | immunosuppressive TAMs (CD11b+Ly6ClowF4/80+Csf1r+) in tumor tissues [5, 12]: significantly reduced | immunosuppressive Tregs (CD4+CD25+FoxP3+) in tumor tissues [5, 12]: significantly reduced | survival at day 14 [5, 12]: 6/6 | survival at day 28 [5, 12]: 5/6 | tumor volume, day 28 average ([5]; Formula (2) 15 mg/kg BID orally (N=6), day 28): 272 mm^3 | tumor volume, predose average ([5]; cohort treated with Formula (2) 15 mg/kg BID orally (N=6), predose): 165 mm^3 | inhibition of trastuzumab-stimulated NK cell cytokine release [6]: no inhibitory effect | inhibition of trastuzumab-stimulated NK cell degranulation ([7]; 1 μM, trastuzumab-coated (10 μg/mL) HER18, 4 hours): no inhibitory effect | reduction of rituximab-stimulated NK cell degranulation ([7]; rituximab-coated (10 μg/mL) DHL-4, 4 hours): < 2% | effect on Treg development [8]: no adverse effect | % change in MDSC (monocytic) level over 28 days versus % ALC change ([9]; C1D28 and C2D28): increasing MDSC (monocytic) % | % change in NK cell level over 28 days versus % ALC change ([9]; C1D28 or C2D28): increasing NK cell % | activity in binding assays [10]: significant activity only against the A3 adenosine receptor | inhibition of in vitro EGFR phosphorylation [11]: no inhibition
